Here are results for 17 compounds from US8088806B2 (Achillion Pharmaceuticals, Inc., priority 2005, dated 2012).

Each structure is given as a SMILES string.

One assay deals with HCV replicon. In words: Replicon based assay of HCV replication inhibition (NPT ELISA). Format: cell-based, Hepatitis C virus. The note with it: Hepatitis C virus, replicon based assay of HCV replication inhibition; Table II; read-out: Activity. In short, it runs like this:
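NPT (neomycin phosphotransferase) content, proportional to replicon replication, quantified by capture ELISA on day four. Before that, replicon-bearing Huh-7 cells in G418-free screening medium were exposed three days at 37° C to compound, typically six doses from 10 to 0.03 micromolar, with equal DMSO across wells.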
A general note: Replicon systems follow genome replication, usually without infectious particles.
In the case of `CC(=O)OCCCCCCN(C)c1ccc(Nc2nc(-c3ccc(C)nc3)cs2)cc1C(F)(F)F` [compound 466], the EC50 lay within 1 to 10 µM. Take `CC(=O)OCCCCCCN(C)c1ccc(Nc2nc(-c3ccc(F)cc3)cs2)cc1C(F)(F)F` [compound 467]: the EC50 is over 10 µM. `CCCCCCCCOc1ccc(Nc2nc(-c3ccc(C(=O)N(C)C)nc3)cs2)cn1` [compound 468, 5-(2-(6-(octyloxy)pyridin-3-ylamino)thiazol-4-yl)-N,N-dimethylpyridine-2-carboxamide]: the EC50 was 1 to 10 µM. As for `CCCCCCCCOc1ccc(Nc2nc(-c3cccnc3)cs2)cn1` [compound 469, 6-(octyloxy)-N-0(4-(pyridin-3-yl)thiazol-2-yl)pyridin-3-amine], the EC50 fell in the range of 1 to 10 µM.

With `CN(CCCCCCO)c1ccc(Nc2nc(-c3ccc(F)cc3)cs2)cc1C(F)(F)F` [compound 470, 6-(N-(4-(4-(4-fluorophenyl)thiazol-2-ylamino)-2-(trifluoromethyl)phenyl)-N-methylamino)hexan-1-ol], the EC50 lay in the range of 1 to 10 µM. In the case of `CCCCCCCCOc1ccc(Nc2nc(-c3ccc(C)nc3)cs2)cn1` [compound 473, N-(4-(6-methylpyridin-3-yl)thiazol-2-yl)-6-(octyloxy)pyridin-3-amine], the EC50 was under 1 µM. On the same count and under the same terms, for `CCCCCCCCOc1ccc(Nc2nc(-c3ccc(F)c(F)c3)cs2)cn1` [compound 474, N-(4-(3,4-difluorophenyl)thiazol-2-yl)-6-(octyloxy)pyridin-3-amine] the value was under 1 µM. As to `CCCCCCCCOc1ccc(Nc2nc(-c3ccc(F)cc3)cs2)cn1` [compound 475, N-(4-(4-fluorophenyl)thiazol-2-yl)-6-(octyloxy)pyridin-3-amine], the EC50 is under 1 µM.

Consider `CCCCCCCCOc1ccc(Nc2nc(-c3cccnc3)cs2)cc1C(F)(F)F` [compound 476, N-(3-(trifluoromeethyl)-4-(octyloxy)phenyl)-4-(pyridin-3-yl)thiazol-2-amine], for which the EC50 is under 1 µM.

Regarding `CCCCCCCCN(C)c1ccc(Nc2nc(-c3cccnc3)cs2)cc1C(F)(F)F` [compound 477, 2-(trifluoromethyl)-N^1-methyl-N^1-octyl-N^4-(4-(pyridin-3-yl)thiazol-2-yl)benzene-1,4-diamine], the EC50 was under 1 µM. Same read-out and setting: for `O=C(Nc1ccc(OCc2ccccc2)cc1)Nc1nc(-c2ccc(Cl)cc2)cs1` [compound 478, 1-(4-(benzyloxy)phenyl)-3-(4-(4-chlorophenyl)thiazol-2-yl)urea] the value was 1 to 10 µM; for `CCCCCCCCOc1ccc(Nc2nc(Cl)cs2)cc1` [compound 479, 4-chloro-N-(4-(octyloxy)phenyl)thiazol-2-amine], under 1 µM.

Take `CC/C=C\CCCCOc1ccc(Nc2nc(-c3cccnc3)cs2)cc1C(F)(F)F` [compound 480, N-(4-((Z)-oct-5-enyloxy)-3-(trifluoromethyl)phenyl)-4-(pyridin-3-yl)thiazol-2-amine]: the EC50 was under 1 µM. Consider `CC/C=C\CCCCOc1ccc(Nc2nc(-c3ccc(C)nc3)cs2)cc1C(F)(F)F` [compound 481, N-(4-((Z)-oct-5-enyloxy)-3-(trifluoromethyl)phenyl)-4-(6-methylpyridin-3-yl)thiazol-2-amine], for which the EC50 was under 1 µM. Regarding `CC/C=C\CCCCOc1ccc(Nc2nc(-c3ccc(F)cc3)cs2)cc1C(F)(F)F` [compound 482, N-(4-((Z)-oct-5-enyloxy)-3-(trifluoromethyl)phenyl)-4-(4-fluorophenyl)thiazol-2-amine], the EC50 was under 1 µM.

The same assay, now with this note: replicon based assay of HCV replication inhibition; Table II; read-out: Activity.
With `CCCCCCCCOc1ccc(Nc2nc(-c3ccc(C(=O)N(C)C)nc3)cs2)cn1` [compound 471, 5-(2-(6-(octyloxy)pyridin-3-ylamino)thiazol-4-yl)-N,N-dimethylpyridine-2-carboxamide], the EC50 is under 1 µM. Consider `CCCCCCCCOc1ccc(Nc2nc(-c3cccnc3)cs2)cn1` [compound 472, 6-(octyloxy)-N-(4-(pyridin-3-yl)thiazol-2-yl)pyridin-3-amine], for which the EC50 was under 1 µM.
